Test results from ChEMBL document CHEMBL4732171 (J Med Chem, 2021).
Activity calls are given as the source filed them. The rule behind the calls is not given here.

Columns and labels:
[1] = molecular target: Carbonic anhydrase 2 (Homo sapiens) (UniProt P00918); test: Binding affinity to human full length CAH2 expressed in Escherichia coli BL21 (DE3) assessed as binding concentration causing thermal stabilization by Sypro-Orange dye based DSF assay
Carbonic anhydrase 3 = Carbonic anhydrase 3 (Homo sapiens, UniProt P07451)
Sequence of Carbonic anhydrase 3 (P07451 whole entry): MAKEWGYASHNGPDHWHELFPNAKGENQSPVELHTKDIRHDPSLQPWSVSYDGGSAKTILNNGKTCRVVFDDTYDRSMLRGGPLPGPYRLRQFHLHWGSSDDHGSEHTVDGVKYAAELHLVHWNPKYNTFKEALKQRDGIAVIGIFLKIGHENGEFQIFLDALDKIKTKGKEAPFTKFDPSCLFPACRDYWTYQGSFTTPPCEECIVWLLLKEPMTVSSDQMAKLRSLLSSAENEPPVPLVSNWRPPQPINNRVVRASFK

[2] = molecular target: Carbonic anhydrase 9 (Homo sapiens) (UniProt Q16790); conditions: UFH-001, dose 50.0 nM
[3] = molecular target: Carbonic anhydrase 9 (Homo sapiens) (UniProt Q16790); conditions: T47D, dose 50.0 nM

SMILES	Activity [1] [mM]	Ki (Carbonic anhydrase 3) [µM]	inhibition [2]	inhibition [3]
NS(=O)(=O)c1ccc(N2CCN(c3ccc(F)cc3F)C2=O)cc1	0.1	> 10	–	–
CCOc1ccc2nc(S(N)(=O)=O)sc2c1	–	–	Active	Active
